Like-named read-outs stand apart in the source and are kept apart here.
Key:
[1] = system: Pseudomonas aeruginosa ATCC 15442; assay: BCT test (bacterial contact time), 60 s, log reduction / effect fraction; CI by Compusyn; type: cell-based; settings: Pseudomonas aeruginosa, ATCC15442, 1 min, BCT 60 s, in 25% EtOH
Outline: (§1)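 Perfume ingredients, alone or combined, in ethanol were mixed 1:1 with ~1×10^8 CFU/mL log-phase bacteria in TSB for the stated contact time. Survivors were estimated by serial dilution and OD600 growth at 37 °C; log reduction versus ethanol control. CI from effect fractions via Compusyn (<0.9 synergy, >1.0 antagonism).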

[2] = system: Salmonella enterica ATCC 10708; assay: as above; type: cell-based; settings: Salmonella enterica, ATCC10708, 1 min
Outline: as §1

E. coli ATCC 10536 = assay: BCT test (bacterial contact time), 45 s, log reduction / effect fraction; CI by Compusyn; type: cell-based, Escherichia coli; settings: Escherichia coli, ATCC10536, 45 s; for log reduction at […] strength: dose […] w/v
Outline: as §1

S. aureus ATCC 6538 = assay: BCT test (bacterial contact time), 60 s, log reduction / effect fraction; CI by Compusyn; type: cell-based, Staphylococcus aureus; settings: Staphylococcus aureus, ATCC6538, 1 min, in 25% EtOH
Outline: as §1

C. xerosis ATCC 373 = assay: BCT test (bacterial contact time), 120 s, log reduction / effect fraction; CI by Compusyn; type: cell-based; settings: Corynebacterium xerosis, ATCC373, 2 min
Outline: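 C. xerosis cells grown in BHI-TW80 at 37 °C to OD600 1.6 were exposed to ethanolic perfume compositions for 120 s. Viable counts (log CFU) came from serial dilution and OD600 growth after 37 °C incubation, giving log reduction versus ethanol control. CI was computed from concentrations and effect fractions, with <0.9 taken as synergy.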

Structure (SMILES): CC(C=O)Cc1ccc2c(c1)OCO2 (stereo not shown) [Heliopropanal, 3-(1,3-Benzodioxol-5-yl)-2-methylpropanal]
- log reduction at 0.175 % strength ([1]; Dose 0.175 % w/v): 4.8
- log reduction at 0.2 % strength ([1]; Dose 0.2 % w/v): 7.2
- log reduction at 0.25 % strength ([1]; Dose 0.25 % w/v): 7.4
- log reduction at 0.05 % strength [2]: 0
- log reduction at 0.1 % strength [2]: 0.8
- log reduction at 0.12 % strength [2]: 2.9
- log reduction at 0.13 % strength [2]: 3.9
- log reduction at 0.14 % strength [2]: 5.5
- log reduction at 0.1 % strength (E. coli ATCC 10536; dose 0.100 % w/v, 45 s, in 20% EtOH): 1
- log reduction at 0.1 % strength (E. coli ATCC 10536; dose 0.1% w/v, contact 45 s, 20% EtOH): 0.5
- log reduction at 0.12 % strength (E. coli ATCC 10536; dose 0.120 % w/v, 45 s, in 20% EtOH): 2.1
- log reduction at 0.12 % strength (E. coli ATCC 10536; dose 0.12% w/v, contact 45 s, 20% EtOH): 1.1
- log reduction at 0.14 % strength (E. coli ATCC 10536; dose 0.140 % w/v, 45 s, in 20% EtOH): 4.3
- log reduction at 0.14 % strength (E. coli ATCC 10536; dose 0.14% w/v, contact 45 s, 20% EtOH): 3.1
- log reduction at 0.16 % strength (E. coli ATCC 10536; dose 0.160 % w/v, 45 s, in 20% EtOH): 7.3
- log reduction at 0.16 % strength (E. coli ATCC 10536; dose 0.16% w/v, contact 45 s, 20% EtOH): 7
- log reduction at […] strength (E. coli ATCC 10536; 45 s, in 20% EtOH): 7.3
- log reduction at […] strength (E. coli ATCC 10536; contact 45 s, 20% EtOH): 7.4
- log reduction at 0.15 % strength (S. aureus ATCC 6538; Dose 0.15 % w/v, BCT 60 s): 0.4
- log reduction at 0.175 % strength (S. aureus ATCC 6538; Dose 0.175 % w/v, BCT 60 s): 0.4
- log reduction at 0.2 % strength (S. aureus ATCC 6538; Dose 0.200 % w/v, BCT 60 s): 1.3
- log reduction at 0.225 % strength (S. aureus ATCC 6538; Dose 0.225 % w/v, BCT 60 s): 3.5
- log reduction at 0.25 % strength (S. aureus ATCC 6538; Dose 0.25 % w/v, BCT 60 s): 7.3
- log reduction at 0.15 % strength (S. aureus ATCC 6538; dose 0.150 % w/v, 60 s): 0.4
- log reduction at 0.2 % strength (S. aureus ATCC 6538; dose 0.200 % w/v, 60 s): 1.2
- log reduction at 0.225 % strength (S. aureus ATCC 6538; dose 0.225 % w/v, 60 s): 4.2
- log reduction at 0.25 % strength (S. aureus ATCC 6538; dose 0.250 % w/v, 60 s): 7
- log reduction at 0.3 % strength (S. aureus ATCC 6538; dose 0.300 % w/v, 60 s): 7.3
- log reduction at 0.2 % strength (C. xerosis ATCC 373): 0.1
- log reduction at 0.25 % strength (C. xerosis ATCC 373): 0.3
- log reduction at 0.3 % strength (C. xerosis ATCC 373): 1.4
- log reduction at 0.35 % strength (C. xerosis ATCC 373): 1.8
- log reduction at 0.4 % strength (C. xerosis ATCC 373): 2.2

Structure (SMILES): CC(CCO)CCc1ccccc1 (stereo not shown) [Phenylhexanol, 3-methyl-5-phenyl-1-pentanol]
- log reduction at 0.05 % strength ([1]; Dose 0.05 % w/v): 3.7
- log reduction at 0.06 % strength ([1]; Dose 0.06 % w/v): 5.3
- log reduction at 0.07 % strength ([1]; Dose 0.07 % w/v): 7.1
- log reduction at 0.08 % strength ([1]; Dose 0.08 % w/v): 7.5
- log reduction at 0.045 % strength ([2]; Dose 0.045 % w/v, BCT 60 s, in 25% EtOH): 7.9
- log reduction at 0.02 % strength (E. coli ATCC 10536; dose 0.02% w/v, contact 45 s, 20% EtOH): 0
- log reduction at 0.03 % strength (E. coli ATCC 10536; dose 0.03% w/v, contact 45 s, 20% EtOH): 0
- log reduction at 0.035 % strength (E. coli ATCC 10536; dose 0.035% w/v, contact 45 s, 20% EtOH): 1.1
- log reduction at 0.04 % strength (E. coli ATCC 10536; dose 0.04% w/v, contact 45 s, 20% EtOH): 2.4
- log reduction at 0.05 % strength (E. coli ATCC 10536; dose 0.05% w/v, contact 45 s, 20% EtOH): 7.2
- log reduction at 0.05 % strength (S. aureus ATCC 6538; dose 0.050 % w/v, 60 s): 1
- log reduction at 0.06 % strength (S. aureus ATCC 6538; dose 0.060 % w/v, 60 s): 3.3
- log reduction at 0.07 % strength (S. aureus ATCC 6538; dose 0.070 % w/v, 60 s): 6.7
- log reduction at 0.08 % strength (S. aureus ATCC 6538; dose 0.080 % w/v, 60 s): 7
- log reduction at 0.09 % strength (S. aureus ATCC 6538; dose 0.090 % w/v, 60 s): 7.5
- log reduction at 0.15 % strength (C. xerosis ATCC 373; dose 0.15% w/v, contact 120 s, 25% EtOH): 2.5
- log reduction at 0.2 % strength (C. xerosis ATCC 373; dose 0.2% w/v, contact 120 s, 25% EtOH, read-out: Log reduction): 4.2
- log reduction at 0.25 % strength (C. xerosis ATCC 373; dose 0.25% w/v, contact 120 s, 25% EtOH, read-out: Log reduction): 5.1
- log reduction at 0.3 % strength (C. xerosis ATCC 373; dose 0.3% w/v, contact 120 s, 25% EtOH, read-out: Log reduction): 5.9

From patent publication US12419305B2, “Antimicrobial compositions” (Firmenich SA, priority 2018, dated 2025)
